According to PMC9382865, “Infigratinib Reduces Fibroblast Growth Factor 23 (FGF23) and Increases Blood Phosphate in Tumor‐Induced Osteomalacia” (JBMR Plus, 2022):

Legend:
[1] = 24-hour pharmacokinetics after the first oral dose of infigratinib 75 mg in patients with TIO; type: in vivo; conditions: human, blood
Method: (§1) Serial sampling was performed every 2 hours for 24 hours after the first dose of infigratinib to evaluate the pharmacokinetics and pharmacodynamics of the drug. Subsequently, laboratory tests were performed every 2 weeks. Routine blood and urine chemistries were performed at the NIH Clinical Center Department of Laboratory Medicine during inpatient stays and outpatient visits. Laboratory testing in the intervening weeks were performed either at the NIH or at a local laboratory, depending on the patient's proximity to the NIH. Infigratinib levels were also measured at weeks 4 and 8.
(§2) Biochemical testing included measurement of routine chemistries, 1,25D (radioimmunoassay; Mayo Medical Laboratories, Rochester, MN, USA), cFGF23 (ELISA; Immutopics International, San Clemente, CA, USA; Mayo Medical Laboratories), iFGF23 (ELISA; Immutopics International), C‐telopeptide (CTx) (electrochemiluminescence immunoassay; Mayo Medical Laboratories), and procollagen 1 intact N‐terminal (P1NP) (competitive radioimmunoassay; Mayo Medical Laboratories). Infigratinib levels were measured by Q2 Lab Solutions (Durham, NC, USA).

[2] = tested on: FGF23 (intact and C-terminal), blood phosphate; assay: Biochemical response (iFGF23, cFGF23, phosphate, 1,25D, TRP) in patients with TIO on daily infigratinib; type: in vivo, human
Method: Subjects received oral daily doses of infigratinib for up to 24 weeks. The initial dose of 75 mg daily was based on studies investigating infigratinib use in subjects with cholangiocarcinoma, as well as our clinical experience with two NIH patients with TIO who had previously participated in an infigratinib trial outside of the NIH (ClinicalTrials.gov NCT02160041). After 8 weeks on therapy, dose escalation and de‐escalation of drug was determined by investigators based on tolerability and changes in C‐terminal FGF23 (cFGF23) levels. Planned dose escalation would occur by 25 mg every 8 weeks to a maximum dose of 125 mg/d if cFGF23 levels were not suppressed to <100 relative units (RU)/mL. De‐escalations or interruptions would occur if a subject experienced an adverse event, including hyperphosphatemia. A cFGF23 assay that measures both the active intact FGF23 molecule and inactivated C‐terminal fragments was used for titration purposes rather than an intact FGF23 (iFGF23) assay because the cFGF23 assay was the only commercially available option at the time.
as §1, §2
Tubular reabsorption of phosphate (TRP) was calculated using the following equation: 100 × [1 – (urine phosphate × serum creatinine)/(serum phosphate × urine creatinine)] and maximum renal tubular phosphate reabsorption in mass per unit volume of glomerular filtrate (TmP/GFR) was determined using the following equations: for TRP ≤0.86 (86%): TmP∕GFR = TRP × phosphate; for TRP >0.86 (86%): TmP∕GFR = (0.3 × TRP)/[1 − (0.8 × TRP)] ×phosphate.^( [20] ^)
At the end of week 24, patients still on therapy were admitted again to the NIH Clinical Center to monitor off‐drug effects with daily blood and urine sampling × 7 days. Subjects with persistent biochemical remission after 7 days would be monitored as outpatients off therapy for 12 additional weeks. Subjects with normal phosphate levels on infigratinib but without persistent biochemical response on cessation were considered for an optional extension phase.

[3] = tested on: phosphaturic mesenchymal tumors; assay: 18F-FDG-PET/CT and 68Ga-DOTATATE-PET/CT of tumors before and after infigratinib; type: in vivo, human
Method: In patients with identifiable tumors, recent prior imaging was obtained from the patient record. The imaging studies that best characterized their tumor prior to therapy (18Flouride‐Fluorodeoxyglucose (FDG) DG‐PET/CT and/or 68Gallium (68Ga)‐DOTATATE‐PET/CT) were repeated at the 24‐week visit, if clinically indicated, and the changes were assessed.

[4] = Strength assessments and patient-reported quality-of-life outcomes; type: in vivo, human; design: RAND – Emotional well-being: scale not given here; conditions: for Grip Strength Evaluation: baseline 15+/-12; for PROMIS – Mobility Item Bank T score (higher = better): baseline 38+/-7; for RAND – Role limitations due to physical health problems: baseline 44+/-13; for RAND SF-36 Physical Functioning (0-100, higher better): baseline 46+/-19; for RAND – Energy/Fatigue: baseline 50+/-29; for RAND – Bodily Pain: baseline 52+/-29; for PROMIS – Fatigue 8A Short Form T score (higher = increased fatigue): baseline 55+/-8; for PROMIS – Pain Interference 8A short form T score (higher = increased pain interference): baseline 56+/-4; for RAND – Social functioning: baseline 59+/-37; for RAND – General health perceptions: baseline 60+/-11; for RAND – Emotional well-being: baseline 67+/-15; for RAND – Role limitations due to emotional health problems: baseline 67 +/-27; for Pinch Test: baseline 6.8 +/-4; for 5x Sit to stand: baseline 15+/-7; for DASH score (0 no disability, 100 severe disability): baseline 16+/-5
Method: (§3) Safety, tolerability, and efficacy were evaluated during in‐person visits every 4 weeks at the NIH Clinical Center and included a physical exam, ophthalmologic exam, patient‐reported outcome measures and strength assessments. The Disabilities of Arm Shoulder and Hand Outcome Measurement (DASH) questionnaire was used to measure self‐reported upper extremity symptoms and disability. The RAND 36‐item Short Form Health Survey (RAND SF‐36) version 1.0 was performed to determine effects of infigratinib on health‐related quality of life over the duration of the study. Patient Reported Outcomes Measurement Information System (PROMIS) item banks for fatigue (PROMIS SF v1.0‐Fatigue 8a), mobility (PROMIS Bank v2.0 – Mobility), and pain interference (PROMIS SF v1.1‐Pain Interference 8a) were also performed. Strength assessments included a Six‐Minute Walk Test, Grip Strength assessment, Pinch Strength assessment, and Five Time Sit to Stand. The Grip Strength assessment was performed on the dominant hand using a JAMAR Hand Dynamometer (Sammons Preston, Inc., Bolingbrook, IL, USA) and three successive trials were averaged to determine the final score. The Pinch Strength assessment was performed using the Exacta Hydraulic Pinch Gauge (North Coast Medical, Inc., Morgan Hill, CA, USA) with three successive trials averaged for the final score.

[5] = Safety and adverse events (CTCAE) in the phase 2 TIO trial; type: in vivo, human
Method: as §3
The primary objective of the study was to induce a persistent metabolic remission, defined by normalization of FGF23 and phosphate after study drug discontinuation. Secondary objectives included evaluating the effects of infigratinib on mineral homeostasis, radiographic appearance of PMTs, quality of life, and muscle strength. Key biochemical end points included changes in iFGF23, cFGF23, phosphate, 1,25D, TRP, and TmP/GFR. Because the study closed prematurely with only four patients enrolled, results were primarily descriptive. Adverse events were summarized by frequency and percentage. Continuous variables were presented as mean ± standard deviation (SD). Linear mixed effects models were fitted to the repeated measures data collected from the 24‐hour serial sampling and the first 8 weeks of therapy when the patients were on the same infigratinib dose (75 mg daily) because, after this point, dose reductions and interruptions occurred. Analysis was performed using SAS (version 9.4; SAS Institute, Inc., Cary, NC, USA). Graphs were produced using GraphPad Prism 8 (GraphPad Software, Inc., La Jolla, CA, USA).

[6] = design: method as in earlier work; conditions: subjects with cholangiocarcinoma; no reactions above grade 2; cited from earlier work
PMT metastases = tested on: PMT metastases; design: method as in PMID 32905668; conditions: one patient with metastatic TIO, while on therapy, cited from earlier work
[7] = Subject 1, single oral dose 75 mg
[8] = Subject 2, single oral dose 75 mg
[9] = Subject 3, single oral dose 75 mg
[10] = Subject 4, single oral dose 75 mg
[11] = Subject 2, 75 mg then 50 mg daily, up to 24 weeks

## CCN1CCN(c2ccc(Nc3cc(N(C)C(=O)Nc4c(Cl)c(OC)cc(OC)c4Cl)ncn3)cc2)CC1 [Infigratinib]
[1]; [7]
  AUC: 89.7 ng·h/mL
  Cmax: 28.6 ng/mL
  Tmax: 2 h
  half-life: 2.73 h
[1]; [8]
  AUC: 1090 ng·h/mL
  Cmax: 176 ng/mL
  Tmax: 2 h
  half-life: 7.75 h
[1]; [9]
  AUC: 133 ng·h/mL
  Cmax: 23.8 ng/mL
  Tmax: 4 h
  half-life: 3.02 h
[1]; [10]
  AUC: 764 ng·h/mL
  Cmax: 67.9 ng/mL
  Tmax: 6 h
  half-life: 7.62 h
[2]; 75 mg daily, by week 8
  TRP change: increased in all patients
[2]; [11]
  cFGF23 decrease from baseline: 89%
  iFGF23 decrease from baseline: 95%
[2]; Subject 2, first 24 hours after first 75 mg dose
  Reduction in cFGF23: 82%
[2]; Subject 2, neither intact nor C-terminal FGF23 ever normalized
  Biochemical response while on therapy: significant biochemical response
[2]; Subject 2, normal <54 pg/mL
  iFGF23 nadir: 171 pg/mL
[2]; Subject 2, normal <180 RU/mL
  cFGF23 nadir: 241 RU/mL
[2]; Subjects 1, 3 and 4, reversed rapidly with drug cessation
  Metabolic response while on therapy: complete metabolic response
[2]; all patients, 75 mg daily, week 8
  Biochemical response: partial biochemical response
[2]; first 24 hours after first 75 mg dose, p < 0.0001, none exceeded lower limit of normal at hour 24
  Phosphate levels change: increased
[2]; first 24 hours after first 75 mg dose, p < 0.001
  iFGF23 change: decreased significantly
[2]; four TIO patients, up to 24 weeks daily oral
  Enduring metabolic remission (persistently normal FGF23 and blood phosphate following drug discontinuation), primary objective: no subject achieved the primary objective
[3]; Subjects 1 and 2, after 6 months
  Tumor size change after treatment: without appreciable change in size
[3]; all studies except Subject 1 68Ga scans
  Reduction of SUVmax of the PMTs after treatment: greater than 40%
[4]; 8 Weeks, N=4, mean+/-SD
  Grip Strength Evaluation: 18+/-9 kilograms
[4]; 8 Weeks
  PROMIS – Mobility Item Bank T score (higher = better): 39+/-5
  RAND – Role limitations due to physical health problems: 68+/-31
  RAND SF-36 Physical Functioning (0-100, higher better): 51+/-17
  RAND – Energy/Fatigue: 53+/-22
  RAND – Bodily Pain: 63+/-37
  PROMIS – Fatigue 8A Short Form T score (higher = increased fatigue): 53+/-8
  PROMIS – Pain Interference 8A short form T score (higher = increased pain interference): 52+/-6
  RAND – Social functioning: 78+/-21
  RAND – General health perceptions: 73+/-17
  RAND – Emotional well-being: 72+/-13
  RAND – Role limitations due to emotional health problems: 75+/-32
[4]; 8 Weeks, mean+/-SD
  Pinch Test: 6.8 +/-1 kilograms
  5x Sit to stand: 14 ± 1 s
  DASH score (0 no disability, 100 severe disability): 14+/-5
[4]; 24 Weeks, N=4, mean+/-SD, baseline 474+/-250, normal range 391-751
  6 Minute Walk Test: 474+/-250 496+/-173 meters
[4]; 24 Weeks
  PROMIS – Mobility Item Bank T score (higher = better): 39+/-3
  RAND – Role limitations due to physical health problems: 25+/-50
  RAND SF-36 Physical Functioning (0-100, higher better): 40+/-6
  RAND – Energy/Fatigue: 49+/-33
  RAND – Bodily Pain: 36+/-2.5
  PROMIS – Fatigue 8A Short Form T score (higher = increased fatigue): 52+/-9
  PROMIS – Pain Interference 8A short form T score (higher = increased pain interference): 53+/-9
  RAND – Social functioning: 72+/-33
  RAND – General health perceptions: 71+/-18
  RAND – Emotional well-being: 62+/-10
  RAND – Role limitations due to emotional health problems: 41.7+/-50
[4]; 24 Weeks, mean+/-SD
  Pinch Test: 7+/-1 kilograms
  5x Sit to stand: 11 ± 1 s
  Grip Strength Evaluation: 16+/-1 kilograms
  DASH score (0 no disability, 100 severe disability): 12+/-8
[5]; 4 subjects
  Serious adverse events: No subjects experienced serious adverse events
  Total Number of Adverse Events: 111
[5]; both improved following drug interruption
  Grade 3 AEs (CTCAE): increased alanine aminotransferase and decreased neutrophil count in subject 2
[5]; continuous daily dosing, drug interruptions required in two patients
  Corneal keratitis with blurred vision: all patients developed corneal keratitis with blurred vision
[5]; in vivo
  Time to normalization of vision after infigratinib discontinuation: ≤ 60 days
[5]; of 111 AEs
  Number of AEs considered possibly, probably, or definitely related to infigratinib: 87
[5]; subjects who developed ocular keratitis on infigratinib
  Corneal scarring, share of subjects: 50%
[6]
  Blurred vision, share of patients: 21%
  Dry eye, including keratitis, share of patients: 44%
PMT metastases
  FGF23 change: significant decreases in FGF23
PMT metastases; reversed with cessation
  Tumor burden: profound reduction in tumor burden
